Experimental data published in ChEMBL document CHEMBL1201862, “PubChem BioAssay data set” (2004).
Blank lines part the entries; values can stand above or below the molecule they belong to. Activity calls are given as the source filed them.

Tests used:
[1] = biological target: T1, Hexokinase HKDC1 (Homo sapiens, UniProt Q2TB90); test: HKDC1 hexokinase inhibitors, dose response, biochemical, W721R variant (AID 504729); assay type: functional
T1 sequence (Q2TB90 whole entry): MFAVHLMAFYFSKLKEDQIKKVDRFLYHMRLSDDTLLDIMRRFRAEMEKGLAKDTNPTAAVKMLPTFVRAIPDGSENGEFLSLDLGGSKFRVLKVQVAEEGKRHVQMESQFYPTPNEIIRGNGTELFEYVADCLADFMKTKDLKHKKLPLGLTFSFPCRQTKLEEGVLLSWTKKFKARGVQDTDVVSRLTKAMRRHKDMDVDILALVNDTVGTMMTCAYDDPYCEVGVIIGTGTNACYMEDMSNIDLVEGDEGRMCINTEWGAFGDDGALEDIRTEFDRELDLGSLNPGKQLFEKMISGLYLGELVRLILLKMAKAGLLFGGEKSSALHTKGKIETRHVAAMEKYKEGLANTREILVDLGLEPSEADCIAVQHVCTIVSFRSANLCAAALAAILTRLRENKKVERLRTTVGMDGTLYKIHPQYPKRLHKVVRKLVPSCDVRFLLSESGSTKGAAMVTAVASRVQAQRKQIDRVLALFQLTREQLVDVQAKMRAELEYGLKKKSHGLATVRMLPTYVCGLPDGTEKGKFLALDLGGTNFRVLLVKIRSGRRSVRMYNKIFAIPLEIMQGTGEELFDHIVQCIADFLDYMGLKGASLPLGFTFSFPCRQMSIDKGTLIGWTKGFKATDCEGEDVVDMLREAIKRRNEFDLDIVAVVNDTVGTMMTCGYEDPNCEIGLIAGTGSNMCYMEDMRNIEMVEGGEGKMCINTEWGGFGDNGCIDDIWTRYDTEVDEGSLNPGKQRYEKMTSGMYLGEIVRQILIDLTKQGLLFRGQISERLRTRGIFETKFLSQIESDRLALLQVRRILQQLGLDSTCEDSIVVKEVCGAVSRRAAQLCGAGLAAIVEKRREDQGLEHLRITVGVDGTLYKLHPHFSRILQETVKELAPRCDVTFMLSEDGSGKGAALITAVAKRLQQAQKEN

[2] = biological target: Cytochrome P450 2C9 (Homo sapiens, UniProt P11712); settings: Potency
[3] = biological target: Polyadenylate-binding protein 1 (Homo sapiens, UniProt P11940); test: PABP poly(A) RNA binding inhibitors, primary screen, biochemical, fluorescence polarization, uHTS (AID 2014)
[4] = biological target: Eukaryotic translation initiation factor 4H (Homo sapiens, UniProt Q15056); test: human eIF4H binding inhibitors, primary screen, translation initiation inhibitor project, biochemical, uHTS, fluorescence polarization (AID 2012)
[5] = biological target: Cytochrome P450 2D6 (Homo sapiens, UniProt P10635);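 also: CYP2D6 member of a cytochrome P450 panel assay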
[6] = system: HeLa; test: Cytotoxicity counterscreen assay for transcriptional activators of heat shock protein 70 (Hsp70). [Related pubchem assays: 1203, 1252 ]; assay type: functional; settings: Homo sapiens;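 also: cells exposed to compound for 16 hours before readout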
[7] = biological target: T2, Alkaline phosphatase, tissue-nonspecific isozyme (Homo sapiens, UniProt P05186)
T2 sequence (P05186 whole entry): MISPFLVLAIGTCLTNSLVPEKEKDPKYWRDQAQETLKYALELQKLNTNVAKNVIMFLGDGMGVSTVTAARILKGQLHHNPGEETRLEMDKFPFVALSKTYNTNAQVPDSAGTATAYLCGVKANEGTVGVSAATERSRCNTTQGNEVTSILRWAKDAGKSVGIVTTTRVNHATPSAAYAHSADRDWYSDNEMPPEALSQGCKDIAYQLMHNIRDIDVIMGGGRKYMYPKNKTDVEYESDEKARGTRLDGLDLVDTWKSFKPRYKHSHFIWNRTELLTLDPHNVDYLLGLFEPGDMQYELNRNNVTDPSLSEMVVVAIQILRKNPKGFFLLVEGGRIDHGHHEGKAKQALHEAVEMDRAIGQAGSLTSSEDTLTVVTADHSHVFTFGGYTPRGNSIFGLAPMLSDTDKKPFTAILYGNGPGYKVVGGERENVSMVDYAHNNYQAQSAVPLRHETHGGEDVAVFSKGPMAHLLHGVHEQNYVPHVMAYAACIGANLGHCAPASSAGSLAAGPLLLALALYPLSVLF

[8] = biological target: Cytochrome P450 2C19 (Homo sapiens, UniProt P33261); test: Cytochrome panel assay with activity outcomes. Panel member name: p450-cyp2c19 Compounds with AC50 equal or less than 10 uM are considered active; assay type: functional; settings: read-out: AC50
[9] = biological target: FAD-linked sulfhydryl oxidase ALR (Homo sapiens, UniProt P55789); test: inhibitors of human ALR sulfhydryl oxidase, dose response, biochemical, H2O2 detection, luminescence, cherry-pick (AID 493248)
[10] = biological target: T3, Leucine aminopeptidase (Plasmodium falciparum 3D7, UniProt Q8IL11); test: P. falciparum M17LAP inhibitors, primary screen, biochemical, fluorogenic H-Leu-NHMec substrate, 1536-well (AID 1619); assay type: functional
T3 sequence (Q8IL11 whole entry): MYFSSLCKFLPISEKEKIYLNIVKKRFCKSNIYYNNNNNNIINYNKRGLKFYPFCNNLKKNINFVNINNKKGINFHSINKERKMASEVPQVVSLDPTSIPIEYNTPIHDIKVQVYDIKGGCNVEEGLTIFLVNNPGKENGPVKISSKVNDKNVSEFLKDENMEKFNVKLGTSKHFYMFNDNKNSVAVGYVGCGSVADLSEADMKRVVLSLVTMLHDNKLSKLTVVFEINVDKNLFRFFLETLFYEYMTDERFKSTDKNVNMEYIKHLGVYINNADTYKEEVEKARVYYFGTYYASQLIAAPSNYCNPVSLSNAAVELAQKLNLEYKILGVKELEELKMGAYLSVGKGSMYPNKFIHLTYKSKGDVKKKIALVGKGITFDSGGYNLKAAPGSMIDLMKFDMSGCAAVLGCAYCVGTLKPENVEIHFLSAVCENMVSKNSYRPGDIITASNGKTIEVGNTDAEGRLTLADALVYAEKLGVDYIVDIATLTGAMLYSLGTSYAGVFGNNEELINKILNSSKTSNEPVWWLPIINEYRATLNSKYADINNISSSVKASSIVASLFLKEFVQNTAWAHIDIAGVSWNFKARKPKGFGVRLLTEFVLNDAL

[11] = biological target: T4, Aminopeptidase N (Plasmodium falciparum FcB1/Columbia, UniProt O96935); test: P. falciparum M1AAP inhibitors, biochemical, fluorogenic H-Leu-NHMec substrate, 1536-well (AID 1445); set-up: species or system Plasmodium falciparum 3D7, 3D7
T4 sequence (O96935 whole entry): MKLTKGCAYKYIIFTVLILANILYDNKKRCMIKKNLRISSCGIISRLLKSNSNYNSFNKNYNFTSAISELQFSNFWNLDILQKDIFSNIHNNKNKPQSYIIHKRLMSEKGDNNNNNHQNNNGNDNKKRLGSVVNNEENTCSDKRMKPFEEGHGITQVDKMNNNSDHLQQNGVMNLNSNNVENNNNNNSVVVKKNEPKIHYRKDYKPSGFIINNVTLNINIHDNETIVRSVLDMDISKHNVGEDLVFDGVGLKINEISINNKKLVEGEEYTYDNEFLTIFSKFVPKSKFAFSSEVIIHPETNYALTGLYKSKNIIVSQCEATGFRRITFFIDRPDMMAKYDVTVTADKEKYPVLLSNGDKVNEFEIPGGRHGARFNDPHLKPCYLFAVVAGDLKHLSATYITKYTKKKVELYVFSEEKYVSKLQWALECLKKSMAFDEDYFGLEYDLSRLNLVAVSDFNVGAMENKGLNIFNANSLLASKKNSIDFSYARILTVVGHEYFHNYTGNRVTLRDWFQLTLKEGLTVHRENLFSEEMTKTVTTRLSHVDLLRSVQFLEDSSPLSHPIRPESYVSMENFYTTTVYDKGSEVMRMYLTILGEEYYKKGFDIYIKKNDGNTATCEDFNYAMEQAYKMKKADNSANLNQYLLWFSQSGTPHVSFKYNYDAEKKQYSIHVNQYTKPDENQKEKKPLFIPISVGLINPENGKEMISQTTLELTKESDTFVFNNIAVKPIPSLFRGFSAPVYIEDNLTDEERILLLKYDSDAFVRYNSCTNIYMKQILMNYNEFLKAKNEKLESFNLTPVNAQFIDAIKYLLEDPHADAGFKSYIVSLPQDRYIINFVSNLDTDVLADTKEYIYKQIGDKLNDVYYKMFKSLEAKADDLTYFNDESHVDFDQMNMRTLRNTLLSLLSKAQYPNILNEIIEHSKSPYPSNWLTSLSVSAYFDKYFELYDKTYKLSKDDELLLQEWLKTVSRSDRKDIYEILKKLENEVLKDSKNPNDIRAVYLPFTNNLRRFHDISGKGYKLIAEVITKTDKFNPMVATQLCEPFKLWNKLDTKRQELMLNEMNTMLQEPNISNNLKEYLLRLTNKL

[12] = biological target: NS3 (Hepatitis C virus, UniProt A3EZJ3); test: PubChem AID 2173; set-up: species or system Hepacivirus hominis
[13] = cells
[14] = biological target: T5, Short transient receptor potential channel 4 (Mus musculus, UniProt Q9QUQ5); test: mouse TRPC4 channel inhibitors, dose response, cell-based, HEK293 TRPC4/mu-opioid, Fluo-4 calcium (AID 434942); assay type: functional;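 also: potency of inhibitors blocking the TRPC4 calcium response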
T5 sequence (Q9QUQ5 whole entry): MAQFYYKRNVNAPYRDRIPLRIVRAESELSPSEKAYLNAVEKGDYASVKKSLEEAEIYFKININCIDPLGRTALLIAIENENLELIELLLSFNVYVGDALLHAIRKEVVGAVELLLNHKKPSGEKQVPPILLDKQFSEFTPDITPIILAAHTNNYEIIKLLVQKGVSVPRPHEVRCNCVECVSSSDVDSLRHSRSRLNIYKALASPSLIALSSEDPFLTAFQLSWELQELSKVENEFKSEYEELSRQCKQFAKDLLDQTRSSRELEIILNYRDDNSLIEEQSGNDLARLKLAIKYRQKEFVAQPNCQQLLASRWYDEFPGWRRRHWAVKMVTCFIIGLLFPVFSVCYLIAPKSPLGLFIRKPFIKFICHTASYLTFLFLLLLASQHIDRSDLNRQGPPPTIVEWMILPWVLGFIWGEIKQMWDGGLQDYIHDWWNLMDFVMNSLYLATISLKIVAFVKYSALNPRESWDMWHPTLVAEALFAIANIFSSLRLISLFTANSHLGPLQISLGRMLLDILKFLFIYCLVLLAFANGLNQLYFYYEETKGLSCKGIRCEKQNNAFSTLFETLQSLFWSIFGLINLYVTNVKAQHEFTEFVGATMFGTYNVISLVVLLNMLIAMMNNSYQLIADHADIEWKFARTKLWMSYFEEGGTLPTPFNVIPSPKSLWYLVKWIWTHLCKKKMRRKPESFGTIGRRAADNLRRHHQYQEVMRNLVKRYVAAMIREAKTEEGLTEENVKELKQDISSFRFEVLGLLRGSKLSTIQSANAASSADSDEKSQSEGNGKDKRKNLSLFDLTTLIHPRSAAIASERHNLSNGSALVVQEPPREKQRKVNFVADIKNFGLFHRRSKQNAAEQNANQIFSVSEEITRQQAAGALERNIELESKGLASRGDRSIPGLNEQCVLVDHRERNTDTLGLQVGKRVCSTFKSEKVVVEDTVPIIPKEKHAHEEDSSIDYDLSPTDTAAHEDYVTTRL

[15] = cytotoxicity toward NIH3T3 fibroblasts, dose response, counter-screen, cell-based, ATP luminescence, mouse fibroblasts (AID 2010); assay type: functional;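 also: cells exposed to compound for about 90 hours before reading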
[16] = inhibitors of intracellular T. cruzi replication, confirmation, NIH3T3 host cells, beta-gal luminescence (AID 2044); assay type: functional, cell-based;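 also: intracellular parasites grown in NIH/3T3 mouse fibroblasts as host cells; luminescent beta-galactosidase reporter signal from transgenic T. cruzi replicating inside host cells; inhibitors lower the luminescence signal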
[17] = Luminescence Cell-Based Dose Confirmation HTS to Identify Inhibitors of Platelet Dense Granule Release. [Related pubchem assays: 1663 (Primary HTS), 1678 (Summary of Project)]; assay type: functional
[18] = biological target: Luciferin 4-monooxygenase (Photinus pyralis, UniProt P08659); test: firefly luciferase enzyme inhibitors, dose response, biochemical, luminescence (AID 1891)
[19] = biological target: DNA dC->dU-editing enzyme APOBEC-3A (Homo sapiens, UniProt P31941); test: Dose Response confirmation of small molecule APOBEC3A DNA Deaminase Inhibitors via a fluorescence-based single-stranded DNA deaminase assay. [Related pubchem assays (depositor defined):AID493011, AID493024]; assay type: functional
[20] = cytotoxicity in HEK-293T cells, dose response, cytotoxicity control for TCR NF-kB inhibitor project, luminescence, T-cell screen hits (AID 489026); assay type: functional, cell-based;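 also: cells exposed to compound about 14 hours before the viability readout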
[21] = biological target: DNA dC->dU-editing enzyme APOBEC-3G (Homo sapiens, UniProt Q9HC16); assay type: functional;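 also: Dose-response counterscreen measuring inhibition of APOBEC3G DNA deaminase activity, run while confirming APOBEC3A inhibitors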
Chain of DNA dC->dU-editing enzyme APOBEC-3G (Q9HC16 whole entry): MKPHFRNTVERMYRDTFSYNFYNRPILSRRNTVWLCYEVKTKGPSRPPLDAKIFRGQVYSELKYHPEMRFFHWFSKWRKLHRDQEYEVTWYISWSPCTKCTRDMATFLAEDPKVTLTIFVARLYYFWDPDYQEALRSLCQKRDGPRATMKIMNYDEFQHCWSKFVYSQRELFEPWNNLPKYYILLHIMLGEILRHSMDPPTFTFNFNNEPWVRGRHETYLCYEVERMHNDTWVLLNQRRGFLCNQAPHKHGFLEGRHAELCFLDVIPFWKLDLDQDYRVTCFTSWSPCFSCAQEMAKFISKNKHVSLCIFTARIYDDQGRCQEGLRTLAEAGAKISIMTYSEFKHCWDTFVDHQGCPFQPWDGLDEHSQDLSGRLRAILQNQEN

Chain of Polyadenylate-binding protein 1 (P11940 whole entry): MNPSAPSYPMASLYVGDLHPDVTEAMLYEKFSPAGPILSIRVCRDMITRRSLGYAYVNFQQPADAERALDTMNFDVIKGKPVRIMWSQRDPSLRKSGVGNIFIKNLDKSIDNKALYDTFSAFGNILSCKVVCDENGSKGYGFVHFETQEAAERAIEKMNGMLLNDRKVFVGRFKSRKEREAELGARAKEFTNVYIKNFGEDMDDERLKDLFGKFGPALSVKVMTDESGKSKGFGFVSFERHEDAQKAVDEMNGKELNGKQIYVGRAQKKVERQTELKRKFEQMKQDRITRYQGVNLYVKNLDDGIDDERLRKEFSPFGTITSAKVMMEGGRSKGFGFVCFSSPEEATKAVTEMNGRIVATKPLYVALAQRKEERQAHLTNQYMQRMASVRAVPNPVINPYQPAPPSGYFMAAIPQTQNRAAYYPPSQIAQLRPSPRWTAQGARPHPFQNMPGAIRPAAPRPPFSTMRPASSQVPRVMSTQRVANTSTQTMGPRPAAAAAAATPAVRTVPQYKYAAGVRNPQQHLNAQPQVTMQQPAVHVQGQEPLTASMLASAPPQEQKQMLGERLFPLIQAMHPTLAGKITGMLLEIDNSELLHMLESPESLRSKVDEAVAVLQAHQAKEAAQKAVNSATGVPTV
Chain of Cytochrome P450 2C9 (P11712 whole entry): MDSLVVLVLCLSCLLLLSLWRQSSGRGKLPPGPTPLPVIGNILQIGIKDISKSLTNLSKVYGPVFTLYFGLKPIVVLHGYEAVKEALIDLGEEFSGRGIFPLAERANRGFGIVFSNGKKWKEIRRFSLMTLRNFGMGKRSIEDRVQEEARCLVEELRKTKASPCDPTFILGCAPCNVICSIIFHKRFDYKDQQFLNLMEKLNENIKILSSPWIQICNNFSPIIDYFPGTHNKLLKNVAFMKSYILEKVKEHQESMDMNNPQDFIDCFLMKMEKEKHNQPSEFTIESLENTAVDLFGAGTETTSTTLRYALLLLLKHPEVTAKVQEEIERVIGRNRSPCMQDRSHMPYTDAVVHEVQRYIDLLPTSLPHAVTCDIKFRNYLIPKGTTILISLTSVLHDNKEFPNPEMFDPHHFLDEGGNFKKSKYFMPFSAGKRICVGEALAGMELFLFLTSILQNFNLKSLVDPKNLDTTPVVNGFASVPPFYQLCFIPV
Chain of Luciferin 4-monooxygenase (P08659 whole entry): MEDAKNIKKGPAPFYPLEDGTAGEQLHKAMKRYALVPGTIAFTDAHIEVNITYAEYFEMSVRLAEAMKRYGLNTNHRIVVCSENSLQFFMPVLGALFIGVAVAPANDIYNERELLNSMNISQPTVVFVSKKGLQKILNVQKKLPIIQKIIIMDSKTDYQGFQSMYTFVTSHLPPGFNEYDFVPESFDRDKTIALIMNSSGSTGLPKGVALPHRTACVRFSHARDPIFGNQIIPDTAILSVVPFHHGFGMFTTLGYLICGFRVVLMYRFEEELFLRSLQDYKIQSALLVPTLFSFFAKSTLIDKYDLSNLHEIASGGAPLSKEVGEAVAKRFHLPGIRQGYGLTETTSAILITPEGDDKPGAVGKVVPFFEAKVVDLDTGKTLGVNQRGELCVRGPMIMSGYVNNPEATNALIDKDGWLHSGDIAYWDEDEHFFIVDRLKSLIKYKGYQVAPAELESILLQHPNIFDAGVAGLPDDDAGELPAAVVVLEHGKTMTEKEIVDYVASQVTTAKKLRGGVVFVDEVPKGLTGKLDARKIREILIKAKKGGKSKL
Chain of DNA dC->dU-editing enzyme APOBEC-3A (P31941 whole entry): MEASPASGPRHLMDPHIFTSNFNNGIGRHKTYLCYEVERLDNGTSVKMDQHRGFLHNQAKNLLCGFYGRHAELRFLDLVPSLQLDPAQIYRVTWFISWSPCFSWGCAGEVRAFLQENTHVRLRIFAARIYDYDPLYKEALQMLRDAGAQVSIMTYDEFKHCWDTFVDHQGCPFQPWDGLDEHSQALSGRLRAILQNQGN
Chain of NS3 (A3EZJ3 whole entry): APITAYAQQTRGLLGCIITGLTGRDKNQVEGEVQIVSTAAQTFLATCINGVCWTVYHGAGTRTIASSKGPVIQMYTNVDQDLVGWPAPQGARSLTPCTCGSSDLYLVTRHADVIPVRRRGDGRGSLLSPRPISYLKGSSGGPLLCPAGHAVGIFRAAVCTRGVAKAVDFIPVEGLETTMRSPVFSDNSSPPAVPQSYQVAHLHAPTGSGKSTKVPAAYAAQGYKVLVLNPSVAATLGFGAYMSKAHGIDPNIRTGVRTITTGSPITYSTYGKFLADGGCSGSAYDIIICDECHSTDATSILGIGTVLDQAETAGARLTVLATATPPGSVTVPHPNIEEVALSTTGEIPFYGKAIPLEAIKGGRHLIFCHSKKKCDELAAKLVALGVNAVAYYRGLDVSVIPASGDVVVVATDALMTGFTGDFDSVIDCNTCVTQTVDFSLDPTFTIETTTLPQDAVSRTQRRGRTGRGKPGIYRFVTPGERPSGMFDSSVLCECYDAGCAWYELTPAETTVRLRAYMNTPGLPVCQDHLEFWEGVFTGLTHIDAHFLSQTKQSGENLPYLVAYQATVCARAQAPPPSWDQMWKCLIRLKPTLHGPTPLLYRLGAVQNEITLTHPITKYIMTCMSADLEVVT
Chain of Cytochrome P450 2C19 (P33261 whole entry): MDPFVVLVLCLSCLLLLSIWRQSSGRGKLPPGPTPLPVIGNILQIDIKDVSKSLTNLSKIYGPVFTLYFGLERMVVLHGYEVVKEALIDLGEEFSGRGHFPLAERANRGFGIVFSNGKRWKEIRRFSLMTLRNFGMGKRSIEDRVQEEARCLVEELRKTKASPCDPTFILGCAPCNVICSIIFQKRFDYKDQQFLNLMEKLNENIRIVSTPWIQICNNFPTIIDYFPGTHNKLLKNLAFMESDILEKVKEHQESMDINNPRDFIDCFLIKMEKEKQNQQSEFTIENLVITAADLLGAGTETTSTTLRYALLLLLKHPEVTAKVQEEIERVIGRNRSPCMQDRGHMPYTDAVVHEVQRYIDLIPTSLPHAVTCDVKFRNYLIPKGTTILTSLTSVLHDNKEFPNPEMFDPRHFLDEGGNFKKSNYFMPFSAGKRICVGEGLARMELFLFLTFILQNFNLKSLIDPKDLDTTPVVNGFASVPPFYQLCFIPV
Chain of Cytochrome P450 2D6 (P10635 whole entry): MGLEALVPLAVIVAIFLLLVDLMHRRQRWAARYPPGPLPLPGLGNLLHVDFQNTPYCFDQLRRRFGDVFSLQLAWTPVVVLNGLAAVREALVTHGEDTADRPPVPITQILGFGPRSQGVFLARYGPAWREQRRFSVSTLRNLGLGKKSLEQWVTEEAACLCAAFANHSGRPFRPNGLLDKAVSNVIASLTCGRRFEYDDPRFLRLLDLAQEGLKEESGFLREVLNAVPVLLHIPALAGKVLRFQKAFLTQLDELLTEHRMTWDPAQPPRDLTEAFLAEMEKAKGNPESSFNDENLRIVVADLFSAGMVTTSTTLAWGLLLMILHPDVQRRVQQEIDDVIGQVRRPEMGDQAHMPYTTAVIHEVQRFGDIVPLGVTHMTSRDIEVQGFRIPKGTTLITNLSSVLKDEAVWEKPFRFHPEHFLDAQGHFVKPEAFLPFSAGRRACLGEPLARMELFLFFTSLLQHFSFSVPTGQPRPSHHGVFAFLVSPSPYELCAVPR
Chain of FAD-linked sulfhydryl oxidase ALR (P55789 whole entry): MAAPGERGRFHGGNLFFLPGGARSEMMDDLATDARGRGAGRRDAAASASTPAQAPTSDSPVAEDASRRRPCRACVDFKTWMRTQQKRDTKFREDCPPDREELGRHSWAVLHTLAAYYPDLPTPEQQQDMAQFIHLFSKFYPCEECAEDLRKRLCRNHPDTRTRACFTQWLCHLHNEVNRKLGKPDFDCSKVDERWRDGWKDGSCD

IC50 [1]: 13.6 µM (active)
Structure (SMILES): Cc1cc2cc(CCNC(=O)c3ccc(S(=O)(=O)N4CCCC4)cc3)c(O)nc2cc1C

Structure (SMILES): CC(C)C[C@H]1C(=O)N2CCC[C@@H]2[C@]2(O)O[C@](NC(=O)[C@H]3C=C4c5cccc6[nH]cc(c56)C[C@H]4N(C)C3)(C(C)C)C(=O)N12
AC50 [2]: 12.6 µM (inconclusive)

Structure (SMILES): CCOc1ccc(NC(=O)C2CCCN2C(=O)Oc2ccccc2)cc1 (stereo unspecified)
IC50 [3]: 1.85 µM (active)
IC50 [4]: > 100 µM (inactive)

Structure (SMILES): CN1CCc2cc3c(cc2[C@@H]1[C@@H]1OC(=O)c2c1ccc1c2OCO1)OCO3
AC50 [5]: 12.6 µM (inconclusive)
AC50 [2]: 39.8 µM (inconclusive)

Structure (SMILES): Cc1c(O)ccc(C(=O)CN2CCN(Cc3ccc4c(c3)OCO4)CC2)c1O
CC50 [6]: > 99 µM (not active)

EC50 [7]: 63 µM (not active)
AC50 [8]: 0.178 µM (inconclusive)
Structure (SMILES): CCNC(=S)NNC(=O)c1cc(CC(C)C)nc2ccccc12

AC50 [9]: 14.6 µM (active)
IC50 [10]: 124 µM (active)
IC50 [11]: 99.7 µM (active)
IC50 [12]: 6.31 µM (active)
Structure (SMILES): COc1ccc(S(=O)(=O)NC2=NC(=O)/C(=C/c3ccco3)S2)cc1

Structure (SMILES): O=C(Oc1ccc(F)cc1C(=O)/C=C/c1cccs1)c1cccc([N+](=O)[O-])c1
CC50 [6]: > 33 µM (not active)

Structure (SMILES): CCCCCn1c2c(c(=N)c3ccccc31)CCC2
EC50 [13]: 0.006 µM (active)
EC50 [14]: 1.5 µM (active)
IC50 [3]: 5.93 µM (active)
EC50 [15]: > 60 µM (not active)
EC50 [16]: < 0.1 µM (active)
EC50 [17]: 0.788 µM (active)
IC50 [4]: > 100 µM (inactive)
EC50 [18]: > 112 µM (not active)
IC50 [19]: 2.62 µM (active)
IC50 [20]: > 80 µM (inactive)
IC50 [21]: 3.19 µM (active)

EC50 [7]: > 100 µM (not active)
Structure (SMILES): Oc1c(/C=N/Nc2cccc3cccnc23)ccc2ccccc12
